From patent publication US20140336135A1, “NOVEL USE OF RHODODENDRIN” (Catholic University Industry Academy Cooperation Foundation, priority 2013, published 2014)

What was measured:
[1] = tested on: Human keratinocyte HaCaT cells; assay: Inhibition of intracellular ROS induced by UV irradiation (H2DCF-DA); assay type: cell-based; settings: 20 μM rhododendrin 1 hour, then 100 J/m^2 UV light
Method: Human keratinocyte HaCaT cells (obtained from professor N. Fusenig, Cancer Research, Germany) were placed in a 60-mm culture dish at a density of 5×10^5 cells (1×10^6 cells for a 100 mm culture dish), and then cultured in 10% FBS (fetal bovine serum)-containing DMEM (Dulbecco's modified Eagle's medium) for 24 hours.
After culture, the cells were treated with 20 μM rhododendrin for 1 hour, and then washed three times with PBS (phosphate buffered saline). To induce ROS (reactive oxygen species), the cells were irradiated with 100 J/m^2 of UV light from a UV lamp (FSX 24 T12/UVB/HO, Pansol™ USA). Immediately after UV irradiation, the cells were washed with PBS and cultured for 4 hours in 1% FBS-containing DMEM medium supplemented with […]. Then, the cells were treated with 25 μM DCFH-DA (2,7-dichlorofliuorescin diacetate) in HBSS (Hank's balanced salt solution, BioWhittaker, CAMBREX, USA) buffer for 30 minutes, and then washed three times with PBS. Next, the measurement of ROS production in the cells by H2DCF-DA staining was performed in the same manner as described in Example 3-1.

[2] = tested on: mice having psoriasis induced by imiquimod; assay: Inhibition of hyperkeratinization in imiquimod psoriasis-induced mouse model (histology, qRT-PCR); assay type: in vivo, mice (C57BL/6)
Method: Tissues were excised from mice having psoriasis induced by imiquimod, and then the effect of rhododendrin on the inhibition of hyperkeratinization in the tissues was examined by histological analysis and qRT (quantitative real-time)-PCR analysis.
Specifically, in order to induce psoriasis by imiquimod, the hairs on the back of 8-week-old mice (C57BL/6, Central Animal Laboratory Inc.) were removed by using hair removal cream. The back of the mice was pre-treated daily with 20 mM rhododendrin before 1 hour, and then imiquimod (3.125 mg) was applied to the back at an one-day interval for 7 days. On the last day of application, the tissues were collected.
Histological examination of the mice skin was performed in the following manner. The mouse skin tissues were fixed in PBS containing 4% paraformaldehyde for 24 hours, washed with tap water, dehydrated with ethanol, and then embedded in paraffin to make a paraffin block. The paraffin block was cut with a microtome into 4 μm-thick sections, which were then placed on a glass slide and treated with xylene to remove wax (paraffin). Then, the tissue sections were dehydrated with ethanol and stained with hematoxylin-eosin (H&E). Histological analysis was performed using a fluorescence attached microscope (Olympus, Japan).
RNA isolation and qRT (quantitative real-time)-PCR analysis were performed in the following manner. Total RNAs were isolated from the tissues using an RNeasy Mini Kit (Qiagen, Valencia, Calif., USA) according to the manufacturer's instructions, and then synthesized into cDNA using QuantiTect Reverse Transcription Kit (Qiagen) according to the manufacturer's instructions. qRT-PCR was performed using Rotorgene™6000 (Corbett life Science) with KAPA™SYBR FAST q-PCR Master Mix(2×) universal. The relative amount of mRNAs was determined by […] method using GAPDH as an internal control. PCR was performed under the following conditions: 95° C. for 5 min; 35 cycles, each consisting of 96° C. for 20 sec, 60° C. for 20 sec and 72° C. for 20 sec; and one cycle at 72° C. for 5 min.

HaCaT cells [3] = assay: ROS scavenging activity, ROS induced by TNF-α/IFN-γ (H2DCF-DA); assay type: cell-based, human
Method: HaCaT cells were seeded at a density of 3×10^5 cells/well in 6-well plates for 12 hours. Cells were washed with serum-free media, treated with 20 μm rhododendrin for 1 hour, and then stimulated with 10 ng/ml of TNF-α and 100 U/ml of […] for 3 hours. The cells were stabilized in Hanks' balanced salt solution (HBSS) for 30 minutes, stained with 10 μM 2′,7′-dichlorofluorescin diacetate (H2DCF-DA) at 37° C. for 30 minutes, and ROS signal was then analyzed with confocal microscopy with emission at 513 nm and excitation at 488 nm. Also, the fluorescence of the cells was measured with a microplate reader (Synergy, BIO TEK, US).

HaCaT cells [4] = assay: Cytotoxicity of rhododendrin, MTT cell viability; assay type: cell-based, human; settings: various concentrations, 24 hours
Method: HaCaT cells were purchased from CLS Cell Line Service GmbH (Eppelheim, Germany). HaCaT cells were seeded at a density of 2×10^4 cells/well in 96-well plates. After a 12 hours incubation, the cells were incubated with various concentrations of rhododendrin for 24 hours. Then, cells were incubated with 3-(4,5-dimethylthiaol-2-yl)-2,5-diphenyltetrazolium bromide (MTT) reagent for 2-4 hours at 37° C. To calculate cell viability, MTT signals were quantified with a microplate reader (BioTek, Winooski, Vt., USA) at wavelength of 540 nm.

TLR7 signaling = assay: Effect on TLR7 signaling pathway in keratinocytes (Western blot, immunofluorescence); assay type: cell-based, human
Method: Keratinocytes were treated with imiquimod, and then TLR7 signaling in the cells was examined by Western blot analysis and immune fluorescence staining. The detailed experimental methods are as follows.
Primary keratinocytes collected from the foreskin of a healthy subject were cultured. Human keratinocytes were cultured in keratinocyte serum-free medium (K-SFM) supplemented with epidermal growth factor (EGF) and bovine pituitary extract (Gibco BRL, Rockville, Md.). When the cells reached to 70% confluency, the cells were washed twice with PBS and cultured in K-SFM for 24 hours. To induce the differentiation of the keratinocytes, 1.2 mM calcium was added to the cells which were then cultured for 1, 3, 7 and 14 days, respectively.
Western blot analysis was performed in the following manner. Serum-starved keratinocytes were treated with various concentrations of rhododendrin for 1 hour, and then stimulated by treatment with imiquimod for different time periods. The cell pellets were lysed in ice-cold RIPA buffer (Roche Applied Science, Indianapolis, Ind., USA) containing protease inhibitor cocktail at 4° C. for 30 minutes. Protein samples were isolated by SDS-PAGE (sodium dodecylsulfate-polyacrylamide gel electrophoresis) and analyzed by immunoblotting. Briefly, the protein on the SDS polyacrylamide gel was transferred to a nitrocellulose membrane (Amersham, UK). […] A signal was detected using X-ray film development or Image-Analyzer System (LAS-3000, Fujifilm, Japan) in a dark room.
In addition, the expression patterns of TLR7, NF-kB (a marker of TLR7) and caveolin (a marker of psoriasis) were analyzed by immunofluorescence in the following manner.
Primary keratinocytes (5×10^5 cells/well) were pre-treated with rhododendrin for 1 hour, and then stimulated with imiquimod for 1 hour. The signal of immunostained NF-kB p65 was analyzed by the method described in Y. Kim. et. al., Free Radical Biology and Medicine; 51(11): 1985-1995, 2011. […]

C[C@H](CCc1ccc(O)cc1)O[C@@H]1O[C@H](CO)[C@@H](O)[C@H](O)[C@H]1O [rhododendrin, Rhododendrin]
ROS fluorescence by confocal microscopy ([1]; FIG. 4): only very minute fluorescence spots were found | amount of DCF-fluorescence (microplate reader) ([1]; versus group not treated, FIG. 5): significantly lower | induction of psoriasis (visual observation of the back tissue) ([2]; 20 mM rhododendrin on the back daily 1 hour before imiquimod (3.125 mg), 7 days, FIGS. 6 to 8): significantly decreased | thickness of the epidermal and dermal layers ([2]; 20 mM rhododendrin topical, imiquimod 7 days, H&E histology, FIGS. 7, 8): a decrease in the thickness of the epidermal and dermal layers | expression of TLR (mRNA, qRT-PCR) in skin tissue ([2]; 20 mM rhododendrin topical, imiquimod 7 days, versus control group, FIG. 9): significantly lower | production of DCF-fluorescence (microplate reader) (HaCaT cells [3]; 20 μM rhododendrin, then TNF-α/IFN-γ, FIG. 3): decreased to that in the control group not treated with TNF-α/IFN-γ | ROS signal (H2DCF-DA fluorescence) by confocal microscopy (HaCaT cells [3]; 20 μm rhododendrin 1 hour, then 10 ng/ml TNF-α and 100 U/ml IFN-γ 3 hours, FIG. 2): no fluorescence was detected | cytotoxicity (cell viability, MTT) (HaCaT cells [4]): no cytotoxicity | activity of caveolin (marker of psoriasis) (TLR7 signaling; keratinocytes, imiquimod and 20 μM rhododendrin, fluorescence staining, FIG. 14): protected | activity of TLR7 (down signaling) (TLR7 signaling; primary keratinocytes pre-treated with rhododendrin 1 hour, then imiquimod, FIGS. 12 and 13): inhibited | activity of NF-kB (marker of TLR7) (TLR7 signaling; primary keratinocytes pre-treated with rhododendrin 1 hour, then imiquimod, phospho-NF-kB p65 Western blot and p65 immunostaining, FIGS. 12 and 13): also inhibited
